Molecular target: PRMT1 (Rattus norvegicus, UniProt Q63009)
Experiment: scintillation proximity assay of 3H-SAM methylation of biotinylated H4 peptide
Type: biochemical

PRMT1, sequence (Q63009 whole entry): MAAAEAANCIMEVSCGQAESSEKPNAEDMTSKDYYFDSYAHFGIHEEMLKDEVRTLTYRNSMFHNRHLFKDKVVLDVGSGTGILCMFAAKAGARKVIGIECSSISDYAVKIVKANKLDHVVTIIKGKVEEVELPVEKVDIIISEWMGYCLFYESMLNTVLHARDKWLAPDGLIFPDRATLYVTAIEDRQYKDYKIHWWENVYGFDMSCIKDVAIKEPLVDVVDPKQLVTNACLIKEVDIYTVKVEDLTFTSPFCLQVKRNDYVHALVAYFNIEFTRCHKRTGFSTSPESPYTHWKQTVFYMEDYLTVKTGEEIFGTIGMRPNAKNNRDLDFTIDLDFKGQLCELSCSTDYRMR

In the case of `Nc1ncnc2c1ncn2[C@@H]1O[C@H](CSCC[C@H](N)C(=O)O)[C@@H](O)[C@H]1O` [SAH, S-adenosyl-L-homocysteine], the IC50 is reported as 300 nM.

From publication PMC3236808 (2011)
